Like-named read-outs stand apart in the source and are kept apart here.
How the values were obtained:
[1] = test system: mean arterial pressure (MAP); test: Effect of CORM-A1 and YC-1 on mean arterial pressure (MAP) in anaesthetised rats; format: in vivo, Lewis rats
Procedure: Lewis rats (280-350 g) were anaesthetised by intramuscular injection of 1 ml/kg Hypnorm. Specially designed femoral artery and venous catheters were then surgically implanted and mean arterial pressure (MAP) monitored continuously using a polygraph recorder in a manner previously described. The effect of CORM-A1 on mean arterial pressure (MAP) over time was assessed following an intravenous (i.v.) injection of 50 μmol kg^−1. Similar experiments were conducted by administering YC-1 (1.2 μmol kg^−1, i.v.) to animals 5 min prior to the bolus addition of CORM-A1. Control experiments using YC-1 alone were also performed.
Femoral artery and venous catheters were surgically implanted into anesthetized Lewis rats and blood pressure continuously monitored as previously described by us. The effect of CORM-A1 and YC-1 on mean arterial pressure (MAP) in vivo is represented in FIG. 11. The compounds were injected intravenously as a bolus at a final concentration of 50 μmoles/kg for CORM-A1 and 1.2 μmol kg^−1 for YC-1. When the two compounds were given in combination, YC-1 was administered 10 min prior to CORM-A1 injection. As shown, CORM-A1 produced a gradual and sustained decrease in MAP over time; for instance, 60 min after CORM-A1 injection MAP decreased by 6.3±1.5 mmHg from the initial baseline value. Injection with YC-1 alone also produced an effect on blood pressure; however, the decrease in MAP was only transient, reaching a maximum of 5.5±1.0 mmHg after 10 min and returning to basal levels 50 min after injection. […] The data are represented as the mean±s.e.m. of 5 independent experiments for each group. *P<0.05 vs. baseline (−10 min); ^⇑P<0.05 vs. CORM-A1 alone or YC-1 alone.

[2] = distilled water at basic pH; cited from earlier work
deoxymyoglobin (Mb) [3] = test: Detection of CO release: conversion of deoxymyoglobin (Mb) to carbonmonoxy myoglobin (MbCO); format: physicochemical
Procedure: The release of CO from CORM-A1 was assessed spectrophotometrically by measuring the conversion of deoxymyoglobin (Mb) to carbonmonoxy myoglobin (MbCO) by a method previously described^23. The amount of MbCO formed was quantified by measuring the absorbance at 540 nm (extinction coefficient=[…]) over time at 37° C. Myoglobin solutions (approximately 50 μmol/L final concentration) were prepared fresh by dissolving the protein in 0.04 M phosphate buffer (pH=7.4). Sodium dithionite (0.1%) was added to convert the oxidized myoglobin to its reduced form prior to each reading. Some experiments were also conducted using Mb at pH=5.5 or at room temperature (RT) in order to examine the kinetic of CO release from CORM-A1 under different chemical and physical conditions.
The amount of MbCO formed after addition of CORM-A1 to the Mb solution can be quantified by measuring the absorbance at 540 nm knowing the extinction coefficient for MbCO (ε=[…]). CORM-A1 at three different concentrations was added to a solution containing Mb at room temperature and the formed MbCO was calculated over time.

[4] = test system: aortic rings pre-contracted with phenylephrine; test: Isolated aortic ring preparation: relaxation response to CORM-A1 in presence or absence of YC-1, phenylephrine 1 μmol/L; format: cell-based, male Lewis rats
Procedure: Transverse ring sections of thoracic aorta were isolated from male Lewis rats and suspended under a 2 g tension in an organ bath containing oxygenated Krebs-Henseleit buffer at 37° C. in a manner previously described. […] YC-1 was added to the isolated rings 30 min prior to contraction with phenylephrine.

[5] = test system: aortic rings pre-contracted with phenylephrine; test: Isolated aortic ring preparation: vessel relaxation in rings pre-contracted with phenylephrine (3 μM); format: cell-based, male Lewis rats; details: for percentage of relaxation compared to control: after 10 min
Procedure: Transverse ring sections of thoracic aorta were isolated from male Lewis rats and suspended under a 2 g tension in an organ bath containing oxygenated Krebs-Henseleit buffer at 37° C. in a manner previously described^10. The relaxation response to CORM-A1 (40, 80 and 160 μM) was assessed in aortic rings pre-contracted with phenylephrine (3 μM). […] Experiments were also conducted by comparing the effect of CORM-A1 and CORM-3 on vessel relaxation over time.

deoxymyoglobin (Mb) [6] = details: cited from earlier work

In the case of `[BH3-]C(=O)[O-].[Na+].[Na+]` [CORM-A1, Disodium boranocarbonate], the “decrease in MAP from initial baseline” value ([1]; 50 μmoles/kg i.v. bolus, 60 min after injection) is listed as 6.3±1.5 mmHg, the “decrease in MAP” value ([1]; CORM-A1 50 μmoles/kg i.v. in combination with YC-1 1.2 μmol kg^−1 given 10 min prior, after 10 min) is listed as 16.1±5.6 mmHg and the stability in water [2] is listed as “relatively stable”. The “calculated Ymax of MbCO formed” value (deoxymyoglobin (Mb) [3]; 15.6 μM CORM-A1, room temperature) was 16.7±1.2, the “calculated Ymax of MbCO formed” value (deoxymyoglobin (Mb) [3]; 31.1 μM CORM-A1, room temperature) was 33.1±1.4 and the “calculated Ymax of MbCO formed” value (deoxymyoglobin (Mb) [3]; 46.7 μM CORM-A1, room temperature) was 48.2±2.5. The “conversion of Mb to MbCO” value (deoxymyoglobin (Mb) [3]; 60 μM, pH=7.4, 37° C., MbCO spectrum after 210 min incubation) was “gradual formation of MbCO over time”, the “CO liberated per mole of compound” value (deoxymyoglobin (Mb) [3]; aqueous solution, room temperature, reaction to completion) was “one mole of CO per mole of compound” and the “release of CO at physiological pH” value (deoxymyoglobin (Mb) [3]; physiological pH) was 18.4 min. The relaxation ([4]; 1 μM CORM-A1, vessels pre-treated with YC-1) was 35±9.8%, the relaxation ([4]; 10 μM CORM-A1, vessels pre-treated with YC-1) was 51±3.3% and the relaxation ([4]; 20 μM after pre-treatment of vessels with YC-1 (1 μM)) was 61±6.2%. For the same molecule, the relaxation ([4]; 20 μM alone, after 20 min) was 13±4.9%, the “percentage of relaxation compared to control” value (shortened to “percentage of relaxation”) ([5]; 40 μM) was 21.0±2.3% and the “time after addition at which the stated relaxation was reached” value ([5]; 80 μM) was 33 min. For the same molecule, the “vasorelaxation (in words)” value ([5]; 80 μM) was “gradual and profound vasorelaxation”, the maximal vasorelaxation ([5]; 80 μM, 33 min following addition) was 96% and the “percentage of relaxation” value ([5]; 80 μM) was 40.2±3.4%. For the same molecule, the “percentage of relaxation” value ([5]; 160 μM) was 74.9±1.8%.
In the case of `NCC(=O)O.[CH+]=O.[CH+]=O.[CH+]=O.[Cl][Ru]` [CORM-3, Tricarbonylchloro(glycinato)ruthenium(II)], the “time in which CO is liberated to Mb” value (deoxymyoglobin (Mb) [6]; added to a solution containing myoglobin (Mb), 1 mole CO per mole compound) is listed as 1 to 2 min, the “CO liberated per mole of compound” value (deoxymyoglobin (Mb) [6]; added to a solution containing myoglobin (Mb), within 1-2 min) is listed as 1 mole of CO per mole of compound and the “time of liberation of CO to Mb or in biological systems” value (deoxymyoglobin (Mb) [6]; from recent works) is listed as “approximately 5 min”. The “time after addition at which the stated relaxation was reached” value ([5]; 80 μM) was 4 to 5 min and the relaxation ([5]; 80 μM, within 4-5 min) was 75%.
For `[BH4-].[Na+]` [NaBH4, Sodium borohydride, reference compound], the “vasorelaxation (in words)” value ([5]; 80 μM) was “totally ineffective”.
With `OCc1ccc(-c2nn(Cc3ccccc3)c3ccccc23)o1` [YC-1, 3-(5′-hydroxymethyl-2′-furyl)-1-benzyl-indazole, reference compound] the “maximum decrease in MAP” value ([1]; YC-1 alone 1.2 μmol kg^−1 i.v., after 10 min) was 5.5±1.0 mmHg, the “time to return of MAP to basal levels” value ([1]; YC-1 alone 1.2 μmol kg^−1 i.v., after injection) was 50 min and the relaxation ([4]; YC-1 alone (1 μM), after 20 min) was 2.8±1.1%.

— patent US20070065485A1, “Therapeutic delivery of carbon monoxide” (priority 2003, published 2007)
